From US20260138958A1, “SUBSTITUTED N-PHENYLURACILS AND SALTS THEREOF, AND USE THEREOF AS HERBICIDAL ACTIVE SUBSTANCES” (Bayer Aktiengesellschaft, priority 2022, published 2026) come the findings set out here.

Structures are written as SMILES.

Assay type in all cases: in vivo
Data set [1] deals with Avena fatura (AVEFA). The experiment in a line: Comparative post-emergence herbicidal action, greenhouse pot test. The settings on record: Table B3 comparison, application rate 20 g/ha. The method, then:
(§1) Seeds of monocotyledonous and dicotyledonous weeds and crop plants were placed in sandy loam in plastic or wood-fibre pots, covered with soil and cultivated in a greenhouse under controlled growth conditions. 2 to 3 weeks after sowing, the test plants were treated at the one-leaf stage. The compounds of the invention, formulated in the form of wettable powders (WP) or as emulsion concentrates (EC), were then sprayed onto the green parts of the plants as aqueous suspension or emulsion with addition of 0.5% additive at a water application rate of 600 l/ha (converted). After the test plants had been kept in the greenhouse under optimum growth conditions for about 3 weeks, the activity of the preparations was rated visually in comparison to untreated controls. For example, 100% activity=the plants have died, 0% activity=like control plants.
Tables B1-B5 below show the effects of inventive compounds (I.7-12, I.7-14, I.7-16) that have been obtained by the test method specified above on various harmful plants at an application rate corresponding to 20 g/ha or lower by comparison with structurally similar compounds known from the literature (“a-27”, “a-29”, disclosed in WO2002/098227).

In data set [2] the test system is Pharbitis purpurea (PHBPU). The experiment in a line: Post-emergence herbicidal action, greenhouse pot test. The essentials: (§2)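 Visual scoring against untreated plants (100% = dead, 0% = no effect), done about 3 weeks after treatment. Aqueous spray of WP or EC formulations plus 0.5% additive at 600 l/ha went onto green parts of one-leaf-stage, greenhouse-grown pot plants 2–3 weeks after sowing.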

Data set [3] deals with Polygonum convolvulus (POLCO). The description is as above. Particulars: Fallopia convolvulus, 504 h. Summed up: as §2
In data set [4] the test system is Abutilon theophrasti (ABUTH). The description is as above. The essentials: as §2
In data set [5] the test system is Amaranthus retroflexus (AMARE). The description is as above. The settings on record: Amaranthus retroflexus, 504 h. The essentials:
as §2

The subject of data set [6] is Echinochloa crus-galli (ECHCG). The data set is described as above. Particulars: for ECHCG (efficacy in %): Table B2 comparison, application rate 1.25 g/ha. Summed up: as §2
In data set [7] the test system is Alopecurus myosuroides (ALOMY). The data set is described as above. The settings on record: for ALOMY (efficacy in %): Table B1 comparison, application rate 20 g/ha. Summed up: as §2
Data set [8] relates to Viola tricolor (VIOTR). The description is as above. Summed up:
as §2

Data set [9] concerns Veronica persica (VERPE). Described as above. The essentials: as §2
The subject of data set [10] is Digitaria sanguinalis (DIGSA). Described as above. Summed up:
as §2

The test system of data set [11] is Setaria viridis (SETVI). The description is as above. Summed up:
as §2

For data set [12], the system named is Tripleurospermum inodorum (MATIN). Described as above. Particulars: Tripleurospermum inodorum, 504 h, 20 g/ha, read-out: Post-emergence effect at 20 g/ha against MATIN in %. The essentials:
as §2

Data set [13] has as its system harmful plants. The experiment in a line: Post-emergence herbicidal action, summary statements over several weeds. The settings on record: 20 g or less per hectare, ALOMY, ECHCG, AVEFA, VERPE. How it is done:
as §1

Data set [14] relates to crop plants. As to the kind of experiment: Post-emergence crop plant compatibility, summary statements over several crops. Particulars: 5 g or less per hectare, ORYSA, ZEAMX, TRZAS. The method, then: as §1
The observed effects on selected crop plants are reported here in comparison to the untreated controls (values in %).

In data set [15] the test system is Zea mays (ZEAMX). The experiment in a line: Post-emergence crop plant compatibility, greenhouse pot test. Particulars: Zea mays, in vivo. The essentials:
(§3)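 Visual % damage scores were taken roughly 3 weeks after treatment, relative to untreated plants, where 100% means plants died and 0% means no difference. Plants received aqueous sprays (WP or EC, 0.5% additive, 600 l/ha) on green parts at the one-leaf stage, 2–3 weeks after sowing.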

Data set [16] relates to Oryza sativa (ORYSA). Described as above. The settings on record: Oryza sativa, in vivo. Summed up: as §3
For data set [17], the system named is Triticum aestivum (TRZAS). The description is as above. The settings on record: Triticum aestivum, in vivo. Summed up:
as §3

`Cn1c(C(F)(F)F)cc(=O)n(-c2cc(Oc3ccccc3OCC(=O)OCC3CCCC3)c(Cl)cc2F)c1=O` [I.7-12]: the “AVEFA (efficacy in %)” value in data set [1] was 70%. Moreover, the “Post-emergence effect at 1.25 g/ha against PHBPU in %” value in [2] (1.25 g/ha) came out at 80%. Besides, the pest or weed control at 5 g/ha in [2] (Ipomoea purpurea, 504 h, 5 g/ha, read-out: Post-emergence effect at 5 g/ha against PHBPU in %) came to 100%; in [3] (5 g/ha, read-out: Post-emergence effect at 5 g/ha against POLCO in %) it was 80%; in data set [4] (Abutilon theophrasti, 504 h, 5 g/ha, read-out: Post-emergence effect at 5 g/ha against ABUTH in %), 100%; in data set [5] (5 g/ha, read-out: Post-emergence effect at 5 g/ha against AMARE in %), 100%; in data set [9] (Veronica persica, 504 h, 5 g/ha, read-out: Post-emergence effect at 5 g/ha against VERPE in %), 100%; in data set [11] (Setaria viridis, 504 h, 5 g/ha, read-out: Post-emergence effect at 5 g/ha against SETVI in %), 100%. The pest or weed control at 20 g/ha was 100% in data set [2] (Ipomoea purpurea, 504 h, 20 g/ha, read-out: Post-emergence effect at 20 g/ha against PHBPU in %); 100% in data set [3] (20 g/ha, read-out: Post-emergence effect at 20 g/ha against POLCO in %); 100% in data set [4] (Abutilon theophrasti, 504 h, 20 g/ha, read-out: Post-emergence effect at 20 g/ha against ABUTH in %); 100% in data set [5] (20 g/ha, read-out: Post-emergence effect at 20 g/ha against AMARE in %); 100% in data set [6] (Echinochloa crus-galli, 504 h, 20 g/ha, read-out: Post-emergence effect at 20 g/ha against ECHCG in %); 100% in data set [7] (Alopecurus myosuroides, 504 h, 20 g/ha, read-out: Post-emergence effect at 20 g/ha against ALOMY in %). Besides, the pest or weed control at 20 g/ha in [8] (Viola tricolor, 504 h, 20 g/ha, read-out: Post-emergence effect at 20 g/ha against VIOTR in %) stood at 100%; in [9] (Veronica persica, 504 h, 20 g/ha, read-out: Post-emergence effect at 20 g/ha against VERPE in %), 100%; in [11] (Setaria viridis, 504 h, 20 g/ha, read-out: Post-emergence effect at 20 g/ha against SETVI in %), 100%; in data set [12], 100%. Moreover, the “Post-emergence effect at 1.25 g/ha against ABUTH in %” value in data set [4] (1.25 g/ha) was 90%. In addition, the pest or weed control at 1.25 g/ha in [5] (1.25 g/ha, read-out: Post-emergence effect at 1.25 g/ha against AMARE in %) was 100%. Also, the “Post-emergence effect at 5 g/ha against ECHCG in %” value in data set [6] (5 g/ha) was found to be 90%. Also, the “ECHCG (efficacy in %)” value in data set [6] was 60%. In addition, the “ALOMY (efficacy in %)” value in [7] was 100%. In [8] (1.25 g/ha), the “Post-emergence effect at 1.25 g/ha against VIOTR in %” value worked out at 100%. For the same compound, the “Post-emergence effect at 5 g/ha against VIOTR in %” value in [8] (5 g/ha) is recorded as 100%. For the same compound, the “Post-emergence effect at 1.25 g/ha against VERPE in %” value in data set [9] (1.25 g/ha) was found to be 90%. Further, the “Post-emergence effect at 1.25 g/ha against DIGSA in %” value in [10] (1.25 g/ha) came to 100%. Also, the “Post-emergence effect at 5 g/ha against DIGSA in %” value in data set [10] (5 g/ha) is 100%. In data set [10] (20 g/ha), the “Post-emergence effect at 20 g/ha against DIGSA in %” value is on record as 100%. Moreover, the “Post-emergence effect at 1.25 g/ha against SETVI in %” value in data set [11] (1.25 g/ha) is 80%. Also, in data set [13], the “herbicidal efficacy by comparison with a-27, a-29 or a generically encompassed structure (WO2002/098227)” value is “distinctly improved herbicidal efficacy”. In addition, the “compatibility with crop plants by comparison with a-27, a-29 or a generically encompassed structure (WO2002/098227)” value in data set [14] is recorded as “distinctly improved compatibility”. The “Post-emergence effect at 1.25 g/ha against ZEAMX in %” value in data set [15] stood at 10%. In addition, the “Post-emergence effect at 5 g/ha against ZEAMX in %” value in [15] is 20%. In [16], the “Post-emergence effect at 1.25 g/ha against ORYSA in %” value came out at 0%. Besides, in data set [16], the “Post-emergence effect at 5 g/ha against ORYSA in %” value is 20%. Besides, in [17], the “Post-emergence effect at 1.25 g/ha against TRZAS in %” value is listed as 10%. In [17], the “Post-emergence effect at 20 g/ha against TRZAS in %” value was 20%.
Regarding `Cn1c(C(F)(F)F)cc(=O)n(-c2cc(Oc3ccccc3OCC(=O)OC3CCCC3)c(Cl)cc2F)c1=O` [a-27, reference compound], the “AVEFA (efficacy in %)” value in data set [1] was found to be 40%. The “ECHCG (efficacy in %)” value in data set [6] was found to be 30%. Further, the “ALOMY (efficacy in %)” value in [7] is 80%.
